Experimental findings from patent publication US20250009727A1, “WATER-SOLUBLE SALTS OF DNA BINDING AGENTS” (BOARD OF REGENTS, THE UNIVERSITY OF TEXAS SYSTEM, priority 2021, published 2025) are described below.

The subject of data set [1] is glioblastoma multiforme (GBM) cell lines. Nature of the data set: In vitro cytotoxicity in glioblastoma multiforme (GBM) cell lines. It counts as cell-based. The text has this:
(§1) FIG. 3—In vitro efficacy of WP1874 in ependymoma, normal kidney, glioblastoma, and medulloblastoma cell lines.

Another data set relates to ependymoma cell lines. Nature of the data set: In vitro cytotoxicity in ependymoma cell lines. Type of data set: cell-based.
Description: as §1

In data set [2] the test system is orthotopic U87 model of GBM. Nature of the data set: In vivo efficacy in orthotopic U87 GBM model. As to conditions: nude athymic mice, intracranial U87; three doses at 1 and 5 mg/kg IP from day 10. Here is the method:
FIG. 2—In vivo efficacy of WP1244 in orthotopic U87 GBM model. Eighteen nude athymic mice were implanted intracranially with 0.5 mln U87 GBM cells. Animals were randomized into three experimental groups (n=6). The treatment was initiated on day 10 and consisted of three doses ow WP1244 at 1 and 5 mg/kg given IP.

Data set [3] is described as follows: Solubility in water and 5% dextrose at room temperature. It counts as physicochemical. As for the experimental part:
To improve solubility and develop IV injectable formulation, different salts of WP1244 were prepared.

Another data set in a line: CNS uptake of WP1244. To be noted: in vivo.

On to `COc1cccc2c1C(=O)c1c(O)c3c(c(O)c1C2=O)C[C@](O)(C(C)=O)C[C@H]3OC1CC(NCc2ccc(NC(=O)c3cc(NC(=O)c4cc(NC(=O)c5ccccn5)cn4C)cn3C)cc2)C(O)C(C)O1` (stereo partly shown) [WP1244], for which the Cytotoxicity entry (in data set [1]; in the data set on ependymoma cell lines) was “picomolar to low nanomolar” throughout. Besides, in data set [2], the “In vivo activity in orthotopic U87 GBM model” value was “demonstrated in vivo activity”. In addition, the “Solubility in 5% Dextrose” value in data set [3] (5% dextrose, room temperature) is reported as “Lower than 0.25 mg/mL”. Besides, the “Solubility (in words)” value in data set [3] (salt forms compared for IV injectable formulation) was “poor solubility”. The “Solubility in H2O” value in data set [3] (water, room temperature) is reported as “Lower than 0.25 mg/mL”. Besides, the CNS uptake entry in the data set “CNS uptake of WP1244” is “especially high CNS uptake”.
